In US20020022659A1, “Crystalline and salt forms of an HIV protease inhibitor” (priority 2000, published 2002):
≈ marks a conversion by molar mass, not a printed value.

Assays:
HIV protease = HIV protease (Human immunodeficiency virus type 1 group M subtype B, UniProt P04585); assay: HIV protease inhibition (stated as tested, no method given); assay type: biochemical
[1] = Polymorphic relationship of the mono-methane sulfonate forms (relative stability); assay type: physicochemical; conditions: anhydrous monotropic polymorphs of the mono-methane sulfonate; between 20° C. and 206° C.
Source text: Form I and Form II are anhydrous monotropic polymorphs. […] Form II, the higher melting form, can be formed directly from crystallization as described above, while Form I can be synthesized using ethyl acetate followed by drying. However, the crystal packing of the ethyl acetate solvate and Form I are distinct from each other confirming that Form I is an actual anhydrous form.

HIV-1 (RF) = assay: HIV RNA assay, microplate based compound evaluation in HIV-1 infected MT-2 cells; assay type: cell-based; conditions: Human immunodeficiency virus 1, MT2, 72 h; HIV-1 (RF) infected MT-2 cells, 3 days of culture; virus dilutions selected to give this value (inoculum standardisation); read-out: IC90 value (concentration of compound required to reduce the HIV RNA level by 90%)
Protocol: DNA Plasmids and in vitro RNA Transcripts:
Plasmid pDAB 72 containing both gag and pol sequences of BH10 (bp 113-1816) cloned into PTZ 19R was prepared according to Erickson-Viitanen et al. AIDS Research and Human Retroviruses 1989, 5, 577. The plasmid was linearized with Bam HI prior to the generation of in vitro RNA transcripts using the Riboprobe Gemini system II kit (Promega) with T7 RNA polymerase. Synthesized RNA was purified by treatment with RNase free DNAse (Promega), phenol-chloroform extraction, and ethanol precipitation. RNA transcripts were dissolved in water, and stored at −70° C. The concentration of RNA was determined from the A260.
Biotinylated capture probes were purified by HPLC after synthesis on an Applied Biosystems (Foster City, Calif.) DNA synthesizer by addition of biotin to the 5′ terminal end of the oligonucleotide, using the biotin-phosphoramidite reagent of Cocuzza, Tet. Lett. 1989, 30, 6287. […]
MT-2 and MT-4 cells were maintained in RPMI 1640 supplemented with 5% fetal calf serum (FCS) for MT-2 cells or 10% FCS for MT-4 cells, 2 mM L-glutamine and 50 μg/mL gentamycin, all from Gibco. […] Infectious titers of HIV-1(RF) stocks were 1-3×10^7 PFU (plaque forming units)/mL as measured by plaque assay on MT-2 cells (see below). […]

Question: With `CC(C)CN(C[C@@H](O)[C@H](Cc1ccccc1)NC(=O)[C@@H](NC(=O)CNCc1cccc(F)c1)C(C)(C)C)S(=O)(=O)c1cccc(N)c1` [Compound A] as the compound, how does the “HIV protease inhibitor activity” value (HIV protease) read?
Answer: Its value is “potent HIV protease inhibitor”.

Question: With `CC(C)CN(C[C@@H](O)[C@H](Cc1ccccc1)NC(=O)[C@@H](NC(=O)CNCc1cccc(F)c1)C(C)(C)C)S(=O)(=O)c1cccc(N)c1` [Form II] as the compound, how does the “Relative stability of polymorphs” value [1] read?
Answer: The value was “more stable than Form I”.

Question: With `Nc1ccn([C@H]2CC[C@@H](CO)O2)c(=O)n1` [ddC, dideoxycytidine] as the compound, how does the IC90 (HIV-1 (RF)) read?
Answer: The IC90 was 0.2 µg/mL (≈ 0.947 µM).
